US20100144683A1, “METHODS FOR GENERATING MAMMALIAN MODELS OF ATOPIC DISEASES, AND SCREENING FOR THEIR TREATMENT” (ASSOCIATION POUR LA RECHERCHE A L'IGBMC (ARI), priority 2006, published 2010)

Key:
TSLP [1] = assay: TSLP RNA level (Q-PCR) in skin and organs after topical application of NR agonists; type: in vivo, mouse; conditions: for effect on TSLP expression (Q-PCR) / increase in TSLP transcripts at D5: 4 nmoles in ethanol topically on whole ears of CD1 WT mice, D1 to D4, Q-PCR on day 5
Experimental: Four nmoles of ligands dissolved in ethanol were topically applied to whole ears of 6-8-week-old female CD1 wildtype (WT) mice for 4 consecutive days (D1 to D4), and TSLP RNA levels were determined on day 5.
1α,25-(OH)2D3, or MC903 and ethanol (vehicle) were applied to WT mouse right and left ears, respectively. Two shaved areas (1 cm^2 each) of dorsal skin were also treated with MC903 or ethanol.

TSLP [2] = assay: as above; type: in vivo, mouse; conditions: for dose dependence of TSLP transcripts: increasing doses (MC903: 0.4, 1 or 4 nmoles per ear); for TSLP RNA levels in ears at D18: 0.25 nmole per ear every second day, WT mice
[3] = system: MC903-induced TSLP expression; assay: RAR antagonist on MC903-induced TSLP RNA in ears; type: in vivo, mouse; conditions: BMS493 2.5 nmoles with MC903 1.25 nmoles, daily on ears of CD1 WT mice, D3
Experimental: The RAR antagonist BMS493 (2.5 nmoles) with ethanol and with or without MC903 (1.25 nmoles) was daily topically-applied to ears of 6-8-week-old female CD1 (WT) mice. TSLP RNA levels in the ears were measured at D3.

[4] = Calcemia and overall health upon topical application; type: in vivo; conditions: 4 nmoles topically on ears, 4 consecutive days
Experimental: 1α,25-(OH)2D3, or MC903 and ethanol (vehicle) were applied to WT mouse right and left ears, respectively. Two shaved areas (1 cm^2 each) of dorsal skin were also treated with MC903 or ethanol. […]

[5] = system: ears of CD1 wildtype (WT) mice; assay: AD-like phenotype upon long-term ear topical treatment (appearance, histology, IHC); type: in vivo, mouse
Text: White arrows point to the dermal/epidermal junction. FIGS. 2a and b show the ear appearance at day 17 after ethanol and MC903 treatment, respectively. FIGS. 2c and d show hematoxylin and eosin-stained (HE) ear sections of ethanol- and MC903-treated mice at day 17, respectively. Eosinophil-selective cytoplasmic red staining is pointed by arrows in the inset of (d). FIG. 2 u show hematoxylin and eosin-stained (HE) ear sections of ethanol- and 1α,25(OH)2D3 treated mice every second day, at a dose of 0.25 nmole, at day 18 (D18). FIGS. 2 e to n show the result of IHC performed on ear sections from ethanol- or MC903-treated mice at D17, with antibodies against GR1 (e and f), CD3 (g and h), CD4 (i and j), CD8 (k and l) and CD11c (m and n). Yellow color corresponds to staining of antibodies, whereas blue corresponds to DAPI staining of nuclei. FIGS. 2 o and p show the Toluidin blue (TB)-staining of ear sections. Red arrows point to one of the mast cells with intense blue color in the dermis.

[6] = system: ears of CD1 wildtype (WT) mice; assay: as above; type: in vivo, mouse; conditions: topical treatment with the RAR agonist alone

Compound: C[C@H](CCCC(C)(C)O)[C@H]1CC[C@H]2[C@@H]3CC=C4C[C@@H](O)CC[C@]4(C)[C@H]3CC[C@]12C [25-hydroxycholesterol]
- effect on TSLP expression (Q-PCR) (TSLP [1]): no effect

Compound: C=C1/C(=C\C=C2/CCC[C@]3(C)[C@@H]([C@H](C)/C=C/C=C/C(O)(CC)CC)CC[C@@H]23)C[C@@H](O)C[C@@H]1O [EB1089, 1(S),3(R)-dihydroxy-20(R)-(5′-ethyl-5′-hydroxy-hepta-1′(E),3′(E)-dien-1′-yl)-9,10-secopregna-5(Z),7(E),10(19)-triene]
- dose dependence of TSLP transcripts (TSLP [2]): similarly observed

Compound: CC1(C)CC=C(C#Cc2ccccc2)c2cc(/C=C/c3ccc(C(=O)O)cc3)ccc21 [BMS493, (E)-4-[2-[5,6-Dihydro-5,5-dimethyl-8-(2-phenylethynyl)naphthalene-2-yl]ethen-1-yl]benzoic Acid]
- effect on MC903-induced TSLP expression [3]: down-regulates

Compound: Cc1cc(SCc2sc(-c3ccc(C(F)(F)F)cc3)nc2C)ccc1OCC(=O)O [GW501516]
- effect on TSLP expression (Q-PCR) (TSLP [1]): no effect

Compound: CC1(C)CCC(C)(C)c2cc(C3(c4ccc(C(=O)O)cc4)OCCO3)ccc21 [BMS649]
- effect on TSLP expression (Q-PCR) (TSLP [1]): no effect

Compound: C=C1/C(=C\C=C2/CCC[C@]3(C)[C@@H]([C@H](C)CCCC(C)(C)O)CC[C@@H]23)C[C@@H](O)C[C@@H]1O [1α,25-(OH)2D3, 1,25-Dihydroxyvitamin D3]
- hypercalcemia and survival [4]: hypercalcemia and death of the mice
- TSLP RNA levels in ears at D18 (TSLP [2]): significantly induced
- TSLP RNA levels in ears at D18 (TSLP [2]; listed as 1α,25(OH)2D3): increased
- ear appearance ([5]; MC903 4 nmoles daily or 1α,25(OH)2D3 0.25 nmole every second day, from D5, D17): reddening and swelling, that worsened with time
- ear histology (hematoxylin/eosin) ([5]; MC903 4 nmoles daily, D17, 1α,25-(OH)2D3 0.25 nmole every other day, D18): inflammatory infiltrate comprising CD4+ T lymphocytes, dendritic cells, eosinophils and mast cells
- increase in TSLP transcripts at D5 (TSLP [1]): > 300 fold

Compound: C=C1/C(=C\C=C2/CCC[C@]3(C)[C@@H]([C@@H](C)OCCCC(O)(CC)CC)CC[C@@H]23)C[C@@H](O)C[C@@H]1O [KH1060, 1α,25-(OH),-20-epi-22-oxa-24,26,27-trishomovitamin D]
- dose dependence of TSLP transcripts (TSLP [2]): similarly observed

Compound: CN(CCOc1ccc(CC2SC(=O)NC2=O)cc1)c1ccccn1 (centres unmarked) [Rosiglitazone]
- effect on TSLP expression (Q-PCR) (TSLP [1]): no effect

Compound: CC(C)OC(=O)C(C)(C)Oc1ccc(C(=O)c2ccc(Cl)cc2)cc1 [Fenofibrate]
- effect on TSLP expression (Q-PCR) (TSLP [1]): no effect

Compound: CC1(C)CCC(C)(C)c2cc(C(O)C(=O)Nc3ccc(C(=O)O)cc3F)ccc21 (centres unmarked) [BMS961, R- and S-3-fluoro-4-[2-hydroxy-2-(5,5,8,8-tetramethyl-5,6,7,8,-tetrahydro-naphthalen-2-yl)-acetulamino]-benzoic acid]
- AD-like phenotype upon topical treatment on its own [6]: too low to trigger an overt AD-like phenotype
- increase in TSLP transcripts at D5 (TSLP [1]): 5 fold
- TSLP transcripts upon application on mouse ear skin (TSLP [1]; topical application on mouse ear skin): significant increase
